According to publication PMC7083851, “Extended pharmacodynamic responses observed upon PROTAC-mediated degradation of RIPK2” (Communications Biology, 2020):
Where “and” joins values, the source holds several entries; their conditions need not be identical. Equal entries are not always repeated.

Experiments:
Hepatocyte CLint, rat = format: in vitro ADME; details: rat liver hepatocytes
Description: Metabolic stability was performed at Cyprotex (UK). Pooled liver microsomes / cryopreserved pooled hepatocytes were purchased from a commercial supplier (BD Biosciences or Corning/InVitro Technologies).
The final incubation volume was 500 µL. An appropriate vehicle control was used. Each compound was incubated for 0, 5, 10, 20, 40, and 60 min. The control (vehicle) was incubated for 60 min.
All incubations were terminated by transferring 50 μL of incubate to 100 μL of acetonitrile containing internal standard at the appropriate time points. The termination plates were centrifuged at 2500 rpm for 20–30min at 4 °C to precipitate the protein. Following protein precipitation, samples were analysed using quantitative LC-MS/MS.

RIPK2 [1] = biological target: RIPK2 (Homo sapiens, UniProt O43353); assay: RIPK2 fluorescence polarisation binding assay
[2] = High-throughput precipitation solubility, chemiluminescent nitrogen-specific detection (CLND); format: physicochemical; details: high-throughput
[3] = test system: L18-MDP-stimulated TNFα release; assay: L18-MDP-stimulated TNFα release in rat whole blood; format: cell-based; details: inhibition of L18-MDP-stimulated TNFα release
Description: Before treatment with compound or vehicle, THP1 cells, human and rat PBMCs were counted using Vi-Cell cell counter (Invitrogen) and adjusted to a final cell density of […] using complete growth medium. Cells or whole blood were treated with vehicle (0.1% DMSO) or fixed concentrations of compound up to 1 μM in half log unit increments and incubated for the time period indicated in the figure.
Where the assessment of cytokines was performed, L18-MDP was added to the cell culture media (1 μg/ml) or to the rat blood samples (100 ng/ml) and samples were incubated for up to 4 h. […]
Cytokine measurement assay: Cytokine levels were measured in rat plasma or rat PBMCs cell culture supernatants using rat V-Plex TNFα, in human plasma or human PBMCs cell culture supernatants with either TNFα tissue culture or 7-plex kit. Rat serum and tissues samples from the in vivo L18-MDP acute inflammation model were analyzed using the rat TNFα, Il-6 and IL-8 U-Plex kits. […] Levels of cytokines spontaneously released from human colon biopsies cell culture supernatants were measured using Human IL-1 beta/IL-1F2 DuoSet ELISA (Bio-techne), Human IL-6 ELISA (Immunotools) and Human TNF-alpha DuoSet ELISA (Bio-techne). […] The MSD plates were analyzed using the MSD sector imager 6000 plate reader and cytokines concentration (pg/ml) was obtained by using the MSD DISCOVERY WORKBENCH software version 4.0.12.1 […]

RIPK2 [4] = biological target: T1, RIPK2 (Rattus norvegicus, UniProt G3V783); assay: RIPK2 levels in colon of dosed rats (Western blot); format: in vivo; details: for RIPK2 level in colon (fig 5f): vehicle control 0.0136-0.0240
T1 construct: from tissue; host or cells: terminal colon samples of dosed rats
Description: Rat PK/PD studies: On arrival, all rats were housed in a plastic solid bottom cage in groups of 2–3 with access to food and water ad libitum and under a 12 h light–dark cycle. Male CD or Wistar Han rats (7–9 weeks old, Charles River UK Ltd.) were randomly allocated to treatment groups upon arrival. Female CD rats (7–8 weeks old on arrival, Charles River Ltd.) were placed into groups using a randomization schedule based on body weight prior to the study start. All animals were acclimatized for a minimum of one week prior to the experiment commencing.
Ex vivo stimulation of rat blood with L18-MDP for PD: PPD blood samples taken prior to PROTAC administration or at fixed timepoints post PROTAC administration through the course of the study, were treated ex vivo with 100 ng/mL L18-MDP (Invivogen) or vehicle (0.1% DMSO) and incubated for 4 h. Following centrifugation, plasma was collected for cytokines analysis as detailed in cytokines assay section. Additionally, RIPK2 levels were determined in PBMCs isolated from blood and where collected, in sampled colon tissue as described in the text.
For in vivo studies, RIPK2:tubulin ratios and cytokine levels from each individual experiment were analysed either using a One-way ANOVA with Dunnet’s post-test or a two way ANOVA using GraphPad Prism 5.0.4 to determine statistical significance with 95% confidence levels.

T1 sequence (G3V783 1-539): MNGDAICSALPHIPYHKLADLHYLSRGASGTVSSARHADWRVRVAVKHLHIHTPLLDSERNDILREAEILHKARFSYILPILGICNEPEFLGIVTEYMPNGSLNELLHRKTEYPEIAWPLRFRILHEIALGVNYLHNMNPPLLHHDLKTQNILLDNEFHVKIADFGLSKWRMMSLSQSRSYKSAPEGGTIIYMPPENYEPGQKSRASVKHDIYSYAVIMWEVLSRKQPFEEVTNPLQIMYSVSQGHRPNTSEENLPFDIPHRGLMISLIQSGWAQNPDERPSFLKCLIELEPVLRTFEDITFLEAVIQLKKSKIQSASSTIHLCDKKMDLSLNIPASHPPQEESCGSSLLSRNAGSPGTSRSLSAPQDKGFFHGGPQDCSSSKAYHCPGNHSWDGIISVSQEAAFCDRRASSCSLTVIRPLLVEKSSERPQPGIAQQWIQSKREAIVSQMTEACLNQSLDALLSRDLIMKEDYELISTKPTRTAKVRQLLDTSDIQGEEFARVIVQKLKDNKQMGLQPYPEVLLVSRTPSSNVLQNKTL
Chain of RIPK2 (Homo sapiens, UniProt O43353) (O43353 whole entry): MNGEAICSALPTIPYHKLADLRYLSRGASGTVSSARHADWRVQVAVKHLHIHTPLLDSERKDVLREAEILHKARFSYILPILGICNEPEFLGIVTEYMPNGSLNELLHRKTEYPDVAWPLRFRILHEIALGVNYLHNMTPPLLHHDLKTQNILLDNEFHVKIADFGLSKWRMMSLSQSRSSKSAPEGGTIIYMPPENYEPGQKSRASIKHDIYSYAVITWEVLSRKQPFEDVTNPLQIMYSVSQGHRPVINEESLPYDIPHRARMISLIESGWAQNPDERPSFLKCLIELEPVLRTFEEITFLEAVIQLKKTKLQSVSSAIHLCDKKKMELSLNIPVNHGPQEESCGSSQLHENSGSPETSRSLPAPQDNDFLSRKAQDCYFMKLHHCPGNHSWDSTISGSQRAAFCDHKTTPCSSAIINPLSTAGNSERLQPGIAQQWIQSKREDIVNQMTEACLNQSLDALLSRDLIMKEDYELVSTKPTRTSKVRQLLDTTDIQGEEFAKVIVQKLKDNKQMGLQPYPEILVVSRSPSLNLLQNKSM

## CN[C@@H](C)C(=O)N[C@H](C(=O)N1CCC[C@H]1c1nc(C(=O)c2ccc(F)cc2)cs1)C1CCN(C(=O)c2cnc(N3CCN(CCOc4cc5ncnc(Nc6n[nH]c(C)c6C)c5cc4S(=O)(=O)C(C)(C)C)CC3)nc2)CC1 [PROTAC 4]
Hepatocyte CLint, rat
  clearance in hepatocytes: < 0.80 mL/min/g liver
RIPK2 [1]
  RIPK2 FP pIC50 ± SEM (n): 6.6 ± 0.02 (8)
[2]
  solubility: > 311 µM
[3]
  rWB MDP pIC50 ± SEM (n): 7.7 ± 0.16 (4)

## CN[C@@H](C)C(=O)N[C@H](C(=O)N1C[C@@H](NC(=O)c2cnc(N3CCN(CCCOc4cc5ncnc(Nc6n[nH]c(C)c6C)c5cc4S(=O)(=O)C(C)(C)C)CC3)cn2)C[C@H]1C(=O)Nc1c(F)cccc1F)C(C)(C)C [PROTAC 6]
RIPK2 [4]; 0.05 mg/kg, individual rats 1-4
  RIPK2 level in colon (fig 5f): 0.0091 and 0.0088 and 0.0071 and 0.0105
RIPK2 [4]; 0.5 mg/kg, individual rats 5-8
  RIPK2 level in colon (fig 5f): 0.0034 and 0.0025 and 0.0038 and 0.0043
RIPK2 [4]; rat, 0.05 and 0.5 mg/kg QD SC, Western blot
  RIPK2 in terminal colon samples, in words: significant degradation of RIPK2
